# Values quoted from earlier work as cited in patent US20190290629A1, “NIRAPARIB SUSTAINED AND CONTROLLED RELEASE PHARMACEUTICAL COMPOSITION AND USE THEREOF” (priority 2016, published 2019).
# Where two headings read alike, the source gives them in different places.
# Assays:
# [1] = test system: ovarian cancer; settings: orally once daily
# [2] = not given; remark: listed apart in the source
# [3] = immediate release capsule, clinical studies
smiles,measurement,setting,value
"NC(=O)c1cccc2cn(-c3ccc([C@@H]4CCCNC4)cc3)nc12 [niraparib, (S)-2-(4-(piperidin-3-yl)phenyl)-2H-indazole-7-carboxamide]",median progression free survival time,"[1]; patients with ovarian cancer of BRCA gene mutation, after first chemotherapy",21 months
same,median progression free survival time,[1]; patients without BRCA gene mutations,9.3 months
same,steady-state blood concentration peak value,300 mg/time/day,about 4.4 μM
same,steady-state blood concentration trough value,300 mg/time/day,~2.0 µM
same,time at which steady-state blood concentration is reached,300 mg/time/day,12 to 14 days
same,oral bioavailability,"immediate release capsule of niraparib tosylate monohydrate, clinical studies",73%
same,blood concentration peak time,[3],3 h
same,effect of food on plasma exposure,[3],not affected by food
same,plasma half-life,[3],more than 30 hours
same,dose-limiting toxicity,[2]; clinical,thrombocytopenia and anemia
same,patients who discontinued the treatment due to toxic and side effects,[2]; clinical studies,15%
same,patients who reduced dose or stopped taking the drug due to toxic and side effects,[2]; clinical studies,69%
same,patients with 3-4 grade anemia,[2]; clinical studies,25%
same,patients with grade 3-4 platelet reduction,[2]; clinical studies,29%
same,patients with neutropenia,[2]; clinical studies,30%
